From the NIST ThermoML archive (doi:10.1021/je7000683)

How the values were obtained:
[1] = activity coefficient (dimensionless); of the first substance listed, at infinite dilution; xn = mol fraction of the nth substance listed; conditions: Liquid, Chromatography, x1 = 0
[2] = for vapor or sublimation pressure: Liquid, Calculated from knudsen effusion weight loss
[3] = Molar enthalpy of transition or fusion; conditions: Crystal; Adiabatic calorimetry
[4] = molar heat capacity at constant pressure; conditions: 101.33 kPa, Small (less than 1 g) adiabatic calorimetry

ON=C1CCCCC1 [cyclohexanone oxime] + CCCCCC[n+]1ccn(C)c1.O=S(=O)([N-]S(=O)(=O)C(F)(F)F)C(F)(F)F
[1]
Conditions	activity coefficient
375.4 K	2.41
386 K	2.22
396.5 K	2.03
407 K	1.84
417.1 K	1.67
417.6 K	1.61
427.5 K	1.51
438 K	1.28

CCCCCC[n+]1ccn(C)c1.O=S(=O)([N-]S(=O)(=O)C(F)(F)F)C(F)(F)F
Conditions	Normal melting temperature [°C]
[2], Crystal, visual observation	-1

O=C1CCCCCN1 [1-aza-2-cycloheptanone] + CCCCCC[n+]1ccn(C)c1.O=S(=O)([N-]S(=O)(=O)C(F)(F)F)C(F)(F)F
Conditions	activity coefficient
[1], 427.5 K	0.49

O=C1CCCCCN1 [1-aza-2-cycloheptanone]
[2]
Conditions	vapor or sublimation pressure [kPa]
315.3 K	0.00286
320.3 K	0.00442
331.9 K	0.01144

Conditions	Triple point temperature [K]	molar heat capacity at constant pressure [J/K/mol]
[2], Crystal, Adiabatic calorimetry	342.22	–
[4], 316 K, Crystal	–	168
[4], 319 K, Crystal	–	169.4
[4], 322 K, Crystal	–	171.1
[4], 323 K, Liquid	–	232.3
[4], 325 K, Crystal	–	173
[4], 326 K, Liquid	–	233.8
[4], 328 K, Crystal	–	175.1
[4], 329 K, Liquid	–	235.3
[4], 331 K, Crystal	–	177.5
[4], 332 K, Liquid	–	236.7
[4], 334 K, Crystal	–	180.1
[4], 335 K, Crystal	–	181
[4], 335 K, Liquid	–	238.2
[4], 338 K, Liquid	–	239.7
[4], 341 K, Liquid	–	241.2
[4], 344 K, Liquid	–	242.7
[4], 347 K, Liquid	–	244.2
[4], 350 K, Liquid	–	245.7
[4], 353 K, Liquid	–	247.1
[4], 356 K, Liquid	–	248.6
[4], 359 K, Liquid	–	250.1
[4], 362 K, Liquid	–	251.6
[4], 365 K, Liquid	–	253.1
[4], 368 K, Liquid	–	254.6

Conditions	Molar enthalpy of transition or fusion [kcal/mol]
[3]	3.862
